Source: patent US11040987B2 (TenNor Therapeutics Limited, priority 2019, dated 2021)
≈ marks a conversion by molar mass, not a printed value.

Experiments:
Type in all cases: cell-based
[1] = system: Escherichia coli ATCC 25922; assay: MIC determination, broth microdilution, ESKAPE panel; details: ATCC25922, iron-depleted cation-adjusted Mueller-Hinton broth, 2,2-dipyridyl 160 μM, 37° C., 18-20 hours, read-out: MIC E. coli ATCC 25922
Experimental: (§1) Minimum inhibitory concentration (MIC) is determined by a broth microdilution method according to the recommendation of the Clinical and Laboratory Standards Institute (CLSI) with minor modification. […] Strains of an ESKAPE panel (E. faecium ATCC 700221, S. aureus ATCC 29213, K. pneumoniae ATCC 43816, A. baumannii ATCC 19606, P. aeruginosa ATCC 27853 and Escherichia coli ATCC 25922) were obtained originally from the American Type Culture Collection (ATCC) and used for MIC determinations of compounds. The bacteria inoculum in the test is […].

E. faecium ATCC 700221 = assay: as above; details: Enterococcus faecium, ATCC700221; iron-depleted cation-adjusted Mueller-Hinton broth, 2,2-dipyridyl 160 μM; 37° C., 18-20 hours; read-out: MIC E. faecium ATCC 700221
Experimental: as §1

P. aeruginosa ATCC 27853 = assay: as above; details: Pseudomonas aeruginosa, ATCC27853; iron-depleted cation-adjusted Mueller-Hinton broth, 2,2-dipyridyl 160 μM; 37° C., 18-20 hours; read-out: MIC P. aeruginosa ATCC 27853
Experimental: as §1

K. pneumoniae ATCC 43816 = assay: as above; details: Klebsiella pneumoniae, ATCC43816; iron-depleted cation-adjusted Mueller-Hinton broth, 2,2-dipyridyl 160 μM; 37° C., 18-20 hours; read-out: MIC K. pneumoniae ATCC 43816
Experimental: as §1

A. baumannii ATCC 19606 = assay: as above; details: Acinetobacter baumannii, ATCC19606; iron-depleted cation-adjusted Mueller-Hinton broth, 2,2-dipyridyl 160 μM; 37° C., 18-20 hours; read-out: MIC A. baumannii ATCC 19606
Experimental: as §1

S. aureus ATCC 29213 = assay: as above; details: Staphylococcus aureus, ATCC29213; iron-depleted cation-adjusted Mueller-Hinton broth, 2,2-dipyridyl 160 μM; 37° C., 18-20 hours; read-out: MIC S. aureus ATCC 29213
Experimental: as §1

A.b TNP 41709 = assay: MIC against A. baumannii clinical isolates, alone and in combination with antibiotics; details: for MIC: Acinetobacter baumannii, TNP41709, Compounds alone, read-out: MIC A.b TNP 41709
A.b TNP 41708 = assay: as above; details: for MIC: Acinetobacter baumannii, TNP41708, read-out: MIC A.b TNP 41708
Experimental: as §1

A.b TNP 41704 = assay: as above; details: for MIC: Acinetobacter baumannii, TNP41704, Compounds alone, read-out: MIC A.b TNP 41704

## C[C@]1(/C=N/NC(=O)CCNC(=O)c2ccc(O)c(O)c2Cl)[C@H](C(=O)O)N2C(=O)C[C@H]2S1(=O)=O [Example 60, (2S,3R,5R)-3-((E)-(2-(3-(2-chloro-3,4-dihydroxybenzamido)propanoyl)hydrazono)methyl)-3-methyl-7-oxo-4-thia-1-azabicyclo[3.2.0]heptane-2-carboxylic acid 4,4-dioxide]
[1]
  MIC: > 128 µg/mL
E. faecium ATCC 700221
  MIC: > 128 µg/mL
P. aeruginosa ATCC 27853
  MIC: > 128 µg/mL
K. pneumoniae ATCC 43816
  MIC: 16 µg/mL (≈ 31.8 µM)
A. baumannii ATCC 19606
  MIC: 2 µg/mL (≈ 3.98 µM)
S. aureus ATCC 29213
  MIC: > 128 µg/mL
A.b TNP 41709
  MIC: > 128 µg/mL
A.b TNP 41709; Compounds + Imipenem (1:1)
  MIC A.b TNP 41709: 1 µg/mL
A.b TNP 41709; Compounds + meropenem (1:1)
  MIC A.b TNP 41709: 2 µg/mL
A.b TNP 41709; Compounds + sulbactam (1:1)
  MIC A.b TNP 41709: 8 µg/mL
A.b TNP 41708
  MIC: > 128 µg/mL
A.b TNP 41708; Compounds + Imipenem (1:1)
  MIC A.b TNP 41708: 2 µg/mL
A.b TNP 41708; Compounds + meropenem (1:1)
  MIC A.b TNP 41708: 2 µg/mL
A.b TNP 41708; Compounds + sulbactam (1:1)
  MIC A.b TNP 41708: 8 µg/mL
A.b TNP 41704
  MIC: 64 µg/mL
A.b TNP 41704; Compounds + Imipenem (1:1)
  MIC A.b TNP 41704: 2 µg/mL
A.b TNP 41704; Compounds + meropenem (1:1)
  MIC A.b TNP 41704: 2 µg/mL
A.b TNP 41704; Compounds + sulbactam (1:1)
  MIC A.b TNP 41704: 1 µg/mL

## C[C@]1(CNc2ccc(O)c(O)c2)[C@H](C(=O)O)N2C(=O)C[C@H]2S1(=O)=O [Example 117, (2S,3S,5R)-3-(((3,4-dihydroxyphenyl)amino)methyl)-3-methyl-7-oxo-4-thia-1-azabicyclo[3.2.0]heptane-2-carboxylic acid 4,4-dioxide]
[1]
  MIC: > 128 µg/mL
E. faecium ATCC 700221
  MIC: > 128 µg/mL
P. aeruginosa ATCC 27853
  MIC: > 128 µg/mL
K. pneumoniae ATCC 43816
  MIC: > 128 µg/mL
A. baumannii ATCC 19606
  MIC: 4 µg/mL (≈ 11.2 µM)
S. aureus ATCC 29213
  MIC: > 128 µg/mL
A.b TNP 41709
  MIC: 64 µg/mL
A.b TNP 41709; Compounds + meropenem (1:1)
  MIC A.b TNP 41709: 8 µg/mL
A.b TNP 41709; Compounds + sulbactam (1:1)
  MIC A.b TNP 41709: 4 µg/mL
A.b TNP 41708
  MIC: 128 µg/mL
A.b TNP 41708; Compounds + meropenem (1:1)
  MIC A.b TNP 41708: 8 µg/mL
A.b TNP 41708; Compounds + sulbactam (1:1)
  MIC A.b TNP 41708: 4 µg/mL
A.b TNP 41704
  MIC: 64 µg/mL
A.b TNP 41704; Compounds + meropenem (1:1)
  MIC A.b TNP 41704: 8 µg/mL
A.b TNP 41704; Compounds + sulbactam (1:1)
  MIC A.b TNP 41704: 4 µg/mL

## C[C@]1(/C=N/NC(=O)c2ccc(O)cc2)[C@H](C(=O)O)N2C(=O)C[C@H]2S1(=O)=O [Example 29, (2S,3R,5R)-3-((E)-(2-(4-hydroxybenzoyl)hydrazono)methyl)-3-methyl-7-oxo-4-thia-1-azabicyclo[3.2.0]heptane-2-carboxylic acid 4,4-dioxide]
[1]
  MIC: > 128 µg/mL
E. faecium ATCC 700221
  MIC: > 128 µg/mL
P. aeruginosa ATCC 27853
  MIC: > 128 µg/mL
K. pneumoniae ATCC 43816
  MIC: > 128 µg/mL
A. baumannii ATCC 19606
  MIC: > 128 µg/mL
S. aureus ATCC 29213
  MIC: > 128 µg/mL
A.b TNP 41709
  MIC: > 128 µg/mL
A.b TNP 41709; Compounds + meropenem (1:1)
  MIC A.b TNP 41709: 32 µg/mL
A.b TNP 41709; Compounds + sulbactam (1:1)
  MIC A.b TNP 41709: 32 µg/mL
A.b TNP 41708
  MIC: > 128 µg/mL
A.b TNP 41708; Compounds + meropenem (1:1)
  MIC A.b TNP 41708: 32 µg/mL
A.b TNP 41708; Compounds + sulbactam (1:1)
  MIC A.b TNP 41708: 32 µg/mL
A.b TNP 41704
  MIC: > 128 µg/mL
A.b TNP 41704; Compounds + meropenem (1:1)
  MIC A.b TNP 41704: 32 µg/mL
A.b TNP 41704; Compounds + sulbactam (1:1)
  MIC A.b TNP 41704: 8 µg/mL

## C[C@]1(/C=N/NC(=O)[C@H](CO)NC(=O)c2ccc(O)c(O)c2Cl)[C@H](C(=O)O)N2C(=O)C[C@H]2S1(=O)=O [Example 43, (2S,3R,5R)-3-((E)-(2-(2-(2-chloro-3,4-dihydroxybenzamido)-3-hydroxypropanoyl)hydrazono)methyl)-3-methyl-7-oxo-4-thia-1-azabicyclo[3.2.0]heptane-2-carboxylic acid 4,4-dioxide]
[1]
  MIC: > 128 µg/mL
P. aeruginosa ATCC 27853
  MIC: > 128 µg/mL
K. pneumoniae ATCC 43816
  MIC: > 128 µg/mL
A. baumannii ATCC 19606
  MIC: 8 µg/mL (≈ 15.4 µM)
S. aureus ATCC 29213
  MIC: > 128 µg/mL
A.b TNP 41709
  MIC: > 128 µg/mL
A.b TNP 41709; Compounds + Imipenem (1:1)
  MIC A.b TNP 41709: 4 µg/mL
A.b TNP 41709; Compounds + meropenem (1:1)
  MIC A.b TNP 41709: 4 µg/mL
A.b TNP 41709; Compounds + sulbactam (1:1)
  MIC A.b TNP 41709: 4 µg/mL
A.b TNP 41708
  MIC: > 128 µg/mL
A.b TNP 41708; Compounds + Imipenem (1:1)
  MIC A.b TNP 41708: 8 µg/mL
A.b TNP 41708; Compounds + meropenem (1:1)
  MIC A.b TNP 41708: 4 µg/mL
A.b TNP 41708; Compounds + sulbactam (1:1)
  MIC A.b TNP 41708: 8 µg/mL
A.b TNP 41704
  MIC: > 128 µg/mL
A.b TNP 41704; Compounds + Imipenem (1:1)
  MIC A.b TNP 41704: 8 µg/mL
A.b TNP 41704; Compounds + meropenem (1:1)
  MIC A.b TNP 41704: 4 µg/mL
A.b TNP 41704; Compounds + sulbactam (1:1)
  MIC A.b TNP 41704: 4 µg/mL

## C[C@]1(/C=N/NC(=O)CCNC(=O)c2ccc(O)c(O)c2)[C@H](C(=O)O)N2C(=O)C[C@H]2S1(=O)=O [Example 67, (2S,3R,5R)-3-((E)-(2-(3-(3,4-dihydroxybenzamido)propanoyl)hydrazono)methyl)-3-methyl-7-oxo-4-thia-1-azabicyclo[3.2.0]heptane-2-carboxylic acid 4,4-dioxide]
[1]
  MIC: > 128 µg/mL
E. faecium ATCC 700221
  MIC: > 128 µg/mL
P. aeruginosa ATCC 27853
  MIC: > 128 µg/mL
K. pneumoniae ATCC 43816
  MIC: 128 µg/mL (≈ 273 µM)
A. baumannii ATCC 19606
  MIC: 4 µg/mL (≈ 8.54 µM)
S. aureus ATCC 29213
  MIC: 128 µg/mL (≈ 273 µM)
A.b TNP 41709
  MIC: > 128 µg/mL
A.b TNP 41709; Compounds + Imipenem (1:1)
  MIC A.b TNP 41709: 8 µg/mL
A.b TNP 41709; Compounds + meropenem (1:1)
  MIC A.b TNP 41709: 4 µg/mL
A.b TNP 41709; Compounds + sulbactam (1:1)
  MIC A.b TNP 41709: 8 µg/mL
A.b TNP 41708
  MIC: > 128 µg/mL
A.b TNP 41708; Compounds + Imipenem (1:1)
  MIC A.b TNP 41708: 4 µg/mL
A.b TNP 41708; Compounds + meropenem (1:1)
  MIC A.b TNP 41708: 2 µg/mL
A.b TNP 41708; Compounds + sulbactam (1:1)
  MIC A.b TNP 41708: 8 µg/mL
A.b TNP 41704
  MIC: > 128 µg/mL
A.b TNP 41704; Compounds + Imipenem (1:1)
  MIC A.b TNP 41704: 4 µg/mL
A.b TNP 41704; Compounds + meropenem (1:1)
  MIC A.b TNP 41704: 4 µg/mL
A.b TNP 41704; Compounds + sulbactam (1:1)
  MIC A.b TNP 41704: 1 µg/mL
